Test results: paper PMC11837686, “γ-Secretase modulator resistance of an aggressive Alzheimer-causing presenilin mutant can be overcome in the heterozygous patient state by a set of advanced compounds” (Alzheimer's Research & Therapy, 2025)
Values joined by “and” are separate entries in the source; they are usually repeats but may differ in a detail not shown here. Equal entries are not always repeated. “Also recorded” adds a separate entry of the source. Where two headings read alike, the source gives them in different places.

What was measured:
[1] = target: γ-secretase (Aβ42) in H4/sw cell line (Homo sapiens, UniProt P49768+P49810); assay: Aβ42 AlphaLISA dose–response in H4/sw cells
Protocol: (§2) After three days of incubation, the medium was harvested, centrifuged and the supernatant was used for Aβ measurements by immunoassays.
(§3) To analyse GSM dose-responses and determine IC50 values for Aβ42 inhibition, secreted Aβ species of HEK293/sw cells were analysed by sandwich immunoassay (MSD) using SULFO-tagged C-terminal specific antibodies to Aβ37, Aβ38, Aβ40 and Aβ42 as described [25] or, in case of H4/sw cells by an Aβ42 AlphaLISA immunoassay kit according to the instructions of the supplier (PerkinElmer) as described [38]. Notch1 cleavage reporter assay was performed as described [38].
(§4) (A) The Aβ42-lowering effects of the GSMs used in this study were additionally characterised in dose-response curves on the H4/sw cell line, measuring Aβ42 levels after over-night incubations with an Aβ42-AlphaLisa. Effects of compounds on Notch1 processing were recorded using a Notch1 reporter assay. […] Means ± SEM of 4–7 independent experiments with 2 technical replicates each are shown. (B) IC50 values for Aβ42 calculated from the experiments in (A).

[2] = target: T1, γ-secretase in WT (WT/WT) MEF cells (Mus musculus, UniProt P49769+Q61144); assay: Secreted Aβ species by ELISA (IBL), WT/WT MEF cells; conditions: for Secreted Aβ38: RO7019009 500 nM
Source text: Immortalised embryonic fibroblast cells from mice expressing human APP and either hetero- or homozygously knocked-in PS1 L166P [36] were generated as follows. For the production of mouse embryonic fibroblasts (MEF), all mice interbred were homozygous APP YAC transgenic mice. Primary MEFs were isolated from 14 days (E14) post-conception mouse embryos from the crossing of APP YAC × PSEN1 L166P (-/-) with APP YAC × PSEN1 L166P (-/-) mice to establish WT/WT MEF lines as well as APP YAC × PSEN1 L166P ( +/-) with APP YAC × PSEN1 L166P (+ / +) mice to establish WT/L166P and L166P/L166P MEF lines. […] The tissue was then triturated 5 times with a 1 ml pipet. Trypsin was inactivated by adding 25 ml of medium (DMEM with 25 mM glucose, 10% FBS, 100 U/ml penicillin, 100 μg/ml streptomycin, 0.25 μg/ml amphotericin B, 6 mM glutamine and 1.5 mM pyruvate). The cell suspension was passed through a cell strainer and centrifuged for 15 min at 200 g. The cell pellet was resuspended in fresh media and plated. After 24 h, media was changed again to eliminate dead cells and debris. To obtain immortalised MEF lines, primary cells at passage 2–3 were transfected (FuGENE6, Promega) with a plasmid containing the SV40 T antigen cDNA. Immortalised cells were selected from individual colonies and maintained in media containing 500 μg/ml of geneticin (G418). Cells were kept at 37 °C with 5% CO2 in a humidified incubator. MEFs from passage 10 + were used for all the experiments and cultured in DMEM supplemented with 10% FCS and G418 (200 µg/ml). […]
(§5) Possible effects of compound treatment to cell viability were recorded using the CytoTox-Glo cell viability assay (Promega) following the instructions of the manufacturer. […]
Immunoblot analysis of secreted Aβ was performed as described [52]. To analyse GSM dose-responses and determine IC50 values for Aβ42 inhibition, secreted Aβ species of HEK293/sw cells were analysed by sandwich immunoassay (MSD) using SULFO-tagged C-terminal specific antibodies to Aβ37, Aβ38, Aβ40 and Aβ42 as described [25] or, in case of H4/sw cells by an Aβ42 AlphaLISA immunoassay kit according to the instructions of the supplier (PerkinElmer) as described [38]. […] GSM effects on secreted Aβ species in conditioned medium of MEF KI cells or iPSC-derived neurons were either quantified by ELISA using end-specific C-terminal antibodies to Aβ38, Aβ40, Aβ42 and Aβ43 obtained from IBL [16, 53] or MSD sandwich-immunoassay (Aβ37, see above). Total Aβ in conditioned medium of iPSC-derived neurons were measured using MSD sandwich-immunoassay using anti-Aβ antibodies 2D8 (biotinylated, capture) and 4G8 (detection) as described previously [54]. […] Protein bands from immunoblots were quantified using the LAS-4000 image reader (Fujifilm Life Science) and Multi-Gauge V3.0 software for analysis.

[3] = target: T2, endogenous γ-secretase in HEK293/sw cells (Homo sapiens, UniProt P49768+P49810); assay: Aβ dose–response in HEK293/sw cells, MSD sandwich immunoassay
Protocol: (§6) Possible effects of compound treatment to cell viability were recorded using the CytoTox-Glo cell viability assay (Promega) following the instructions of the manufacturer. […] After three days of incubation, the medium was harvested, centrifuged and the supernatant was used for Aβ measurements by immunoassays.
(§7) To analyse GSM dose-responses and determine IC50 values for Aβ42 inhibition, secreted Aβ species of HEK293/sw cells were analysed by sandwich immunoassay (MSD) using SULFO-tagged C-terminal specific antibodies to Aβ37, Aβ38, Aβ40 and Aβ42 as described [25] or, in case of H4/sw cells by an Aβ42 AlphaLISA immunoassay kit according to the instructions of the supplier (PerkinElmer) as described [38]. […] GSM effects on secreted Aβ species in conditioned medium of MEF KI cells or iPSC-derived neurons were either quantified by ELISA using end-specific C-terminal antibodies to Aβ38, Aβ40, Aβ42 and Aβ43 obtained from IBL [16, 53] or MSD sandwich-immunoassay (Aβ37, see above). Total Aβ in conditioned medium of iPSC-derived neurons were measured using MSD sandwich-immunoassay using anti-Aβ antibodies 2D8 (biotinylated, capture) and 4G8 (detection) as described previously [54].

[4] = target: T1, γ-secretase in WT (WT/WT) MEF cells; assay: Aβ species by Tris-Bicine urea SDS-PAGE/immunoblot, WT/WT MEF cells; conditions: RO-02 and RO7019009 500 nM, BPN-15606 360 nM; for Aβ40 (gel): WT MEF (genotype not given), RO5254601 2.5 µM; for Short species Aβ37 and Aβ38 (gel): WT MEF
[5] = target: T3, γ-secretase in homozygous (L166P/L166P) PS1 L166P KI MEF cells (Mus musculus, UniProt P49769+Q61144, L166P); assay: Aβ species by Tris-Bicine urea SDS-PAGE/immunoblot, homozygous PS1 L166P KI MEF cells
Protocol: as §6, §7

[6] = test system: γ-secretase in heterozygous (WT/L166P) PS1 L166P KI MEF cells; assay: Aβ species by Tris-Bicine urea SDS-PAGE/immunoblot, heterozygous PS1 L166P KI MEF cells; conditions: for Aβ40 (gel): heterozygous KI MEF (genotype not given), RO5254601 2.5 µM; for Aβ40 (gel) / Short species Aβ37 and Aβ38 (gel): RO-02 and RO7019009 500 nM, BPN-15606 360 nM
Notch1 cleavage = Notch1 cleavage reporter assay (NICD release), HEK293-based reporter cell line; conditions: dose–response
Protocol: as §2, §3, §4

PS1 and PS2 NTF and CTF = assay: Photoaffinity labeling with RO6874585 and competition, HEK293 membrane fractions; assay type: binding, human; conditions: for Competition of RO6874585 crosslinking to presenilin: 100x excess of competitor
Protocol: (§1) Membrane fractions of HEK293 or MEF cells were incubated with RO6874585 in the presence or absence of other GSMs used as competitor compounds as described previously. In brief, after photoactivation, samples were solubilised using SDS-containing buffer and the crosslinked proteins were pulled down with streptavidin-sepharose. Thereafter, samples were analysed by immunoblotting.

[7] = test system: γ-secretase in heterozygous (WT/L166P) PS1 L166P KI MEF cells; assay: Secreted Aβ species by ELISA (IBL), heterozygous PS1 L166P KI MEF cells; conditions: for Aβ38 level in treated cells, % of total Aβ: GSM-1 2.5 µM, RO-02 500 nM, one range given for both compounds and both 'other genotypes'; for Combined pathogenic species (Aβ42 + Aβ43) / Secreted Aβ43: 24 h, RO7019009 500 nM, RO5254601 2.5 µM
Source text: Immortalised embryonic fibroblast cells from mice expressing human APP and either hetero- or homozygously knocked-in PS1 L166P [36] were generated as follows. For the production of mouse embryonic fibroblasts (MEF), all mice interbred were homozygous APP YAC transgenic mice. Primary MEFs were isolated from 14 days (E14) post-conception mouse embryos from the crossing of APP YAC × PSEN1 L166P (-/-) with APP YAC × PSEN1 L166P (-/-) mice to establish WT/WT MEF lines as well as APP YAC × PSEN1 L166P ( +/-) with APP YAC × PSEN1 L166P (+ / +) mice to establish WT/L166P and L166P/L166P MEF lines. […] The tissue was then triturated 5 times with a 1 ml pipet. Trypsin was inactivated by adding 25 ml of medium (DMEM with 25 mM glucose, 10% FBS, 100 U/ml penicillin, 100 μg/ml streptomycin, 0.25 μg/ml amphotericin B, 6 mM glutamine and 1.5 mM pyruvate). The cell suspension was passed through a cell strainer and centrifuged for 15 min at 200 g. The cell pellet was resuspended in fresh media and plated. After 24 h, media was changed again to eliminate dead cells and debris. To obtain immortalised MEF lines, primary cells at passage 2–3 were transfected (FuGENE6, Promega) with a plasmid containing the SV40 T antigen cDNA. Immortalised cells were selected from individual colonies and maintained in media containing 500 μg/ml of geneticin (G418). Cells were kept at 37 °C with 5% CO2 in a humidified incubator. MEFs from passage 10 + were used for all the experiments and cultured in DMEM supplemented with 10% FCS and G418 (200 µg/ml). […] H4 cells overexpressing APPsw (H4/sw) and HEK293-based Notch1 reporter cell lines were cultured as described [38].
as §6
Immunoblot analysis of secreted Aβ was performed as described [52]. To analyse GSM dose-responses and determine IC50 values for Aβ42 inhibition, secreted Aβ species of HEK293/sw cells were analysed by sandwich immunoassay (MSD) using SULFO-tagged C-terminal specific antibodies to Aβ37, Aβ38, Aβ40 and Aβ42 as described [25] or, in case of H4/sw cells by an Aβ42 AlphaLISA immunoassay kit according to the instructions of the supplier (PerkinElmer) as described [38]. Notch1 cleavage reporter assay was performed as described [38]. GSM effects on secreted Aβ species in conditioned medium of MEF KI cells or iPSC-derived neurons were either quantified by ELISA using end-specific C-terminal antibodies to Aβ38, Aβ40, Aβ42 and Aβ43 obtained from IBL [16, 53] or MSD sandwich-immunoassay (Aβ37, see above). Total Aβ in conditioned medium of iPSC-derived neurons were measured using MSD sandwich-immunoassay using anti-Aβ antibodies 2D8 (biotinylated, capture) and 4G8 (detection) as described previously [54]. […] Protein bands from immunoblots were quantified using the LAS-4000 image reader (Fujifilm Life Science) and Multi-Gauge V3.0 software for analysis.

[8] = target: γ-secretase in WT iPSC-derived cortical neurons (Homo sapiens, UniProt P49768+P49810); assay: Secreted Aβ species by immunoassays, WT iPSC-derived cortical neurons; conditions: 3 days, RO7019009 500 nM or 2.5 µM, RO5254601 2.5 µM
Protocol: The media was exchanged (NM/DOX) for the next two days. […] On day 6 and 9 cells were fed with NM/DOX complemented with 300 ng/ml puromycin dihydrochloride (puro, VWR, Cat. No. J593). Afterwards, the medium was switched to NM supplemented with 5 μM 5-fluorouracil (5FU, Sigma, Cat. No. F6627) with half feeds to remove the remaining dividing stem and neuron precursor cells. From day 13, cells were grown in NB (Neurobasal, penicillin–streptomycin) with B27 Plus (Thermo Fisher, Cat. No. A3582801) and 5FU. 5FU was removed in the following feeds. The cells were grown until day 24 before treatment started and analysed at day 27.
as §5
Immunoblot analysis of secreted Aβ was performed as described [52]. […] GSM effects on secreted Aβ species in conditioned medium of MEF KI cells or iPSC-derived neurons were either quantified by ELISA using end-specific C-terminal antibodies to Aβ38, Aβ40, Aβ42 and Aβ43 obtained from IBL [16, 53] or MSD sandwich-immunoassay (Aβ37, see above). Total Aβ in conditioned medium of iPSC-derived neurons were measured using MSD sandwich-immunoassay using anti-Aβ antibodies 2D8 (biotinylated, capture) and 4G8 (detection) as described previously [54]. […]

[9] = test system: iPSC-derived cortical neurons (total Aβ); assay: Total Aβ by MSD sandwich immunoassay (2D8/4G8) in iPSC-derived neurons; conditions: WT, heterozygous and homozygous neurons, 3 days; RO7019009 500 nM or 2.5 µM, RO5254601 2.5 µM
Protocol: as §6, §7

[10] = target: γ-secretase in homozygous L166P/L166P iPSC-derived cortical neurons (Homo sapiens, UniProt P49768+P49810, L166P); assay: Secreted Aβ species by immunoassays, homozygous PS1 L166P KI iPSC-derived neurons; conditions: 3 days
Protocol: as §6
(§8) Immunoblot analysis of secreted Aβ was performed as described [52]. To analyse GSM dose-responses and determine IC50 values for Aβ42 inhibition, secreted Aβ species of HEK293/sw cells were analysed by sandwich immunoassay (MSD) using SULFO-tagged C-terminal specific antibodies to Aβ37, Aβ38, Aβ40 and Aβ42 as described [25] or, in case of H4/sw cells by an Aβ42 AlphaLISA immunoassay kit according to the instructions of the supplier (PerkinElmer) as described [38].

[11] = test system: γ-secretase in heterozygous WT/L166P iPSC-derived cortical neurons; assay: Secreted Aβ species by immunoassays, heterozygous PS1 L166P KI iPSC-derived neurons; conditions: 3 days, RO7019009 500 nM or 2.5 µM, RO5254601 2.5 µM
Protocol: as §6, §8

PS1 L166P = target: T4, PS1 L166P (Mus musculus, UniProt P49769, L166P); assay: Photoaffinity labeling with RO6874585, WT or PS1 L166P KI MEF membrane fractions; assay type: binding
T4 construct: crosslinking efficiencies of PS1 NTF and PS1 CTF in WT or PS1 L166P KI MEF cell membranes; endogenous in cells; host or cells: membrane fractions of PS1 L166P knock-in MEF cells
Protocol: as §1

brain-derived cell lines = test system: brain-derived cell lines; design: method as in PMID 31762188; conditions: read-out: IC50 (Aβ42); cited from earlier work
[12] = target: T2, endogenous γ-secretase in HEK293/sw cells; design: endogenous γ-secretase in HEK293/sw cells; endogenous in cells; host or cells: HEK293/sw (HEK293 stably expressing APPsw); conditions: read-out: IC50 (Aβ42); cited from earlier work
[13] = target: T3, γ-secretase in homozygous (L166P/L166P) PS1 L166P KI MEF cells; assay: Secreted Aβ species by ELISA (IBL), homozygous PS1 L166P KI MEF cells; conditions: GSM-1 2.5 µM, RO-02 500 nM, one range printed for both compounds, measurable in half of the samples
Source text: Immortalised embryonic fibroblast cells from mice expressing human APP and either hetero- or homozygously knocked-in PS1 L166P [36] were generated as follows. For the production of mouse embryonic fibroblasts (MEF), all mice interbred were homozygous APP YAC transgenic mice. Primary MEFs were isolated from 14 days (E14) post-conception mouse embryos from the crossing of APP YAC × PSEN1 L166P (-/-) with APP YAC × PSEN1 L166P (-/-) mice to establish WT/WT MEF lines as well as APP YAC × PSEN1 L166P ( +/-) with APP YAC × PSEN1 L166P (+ / +) mice to establish WT/L166P and L166P/L166P MEF lines. […] The tissue was then triturated 5 times with a 1 ml pipet. […]
as §5
Immunoblot analysis of secreted Aβ was performed as described [52]. To analyse GSM dose-responses and determine IC50 values for Aβ42 inhibition, secreted Aβ species of HEK293/sw cells were analysed by sandwich immunoassay (MSD) using SULFO-tagged C-terminal specific antibodies to Aβ37, Aβ38, Aβ40 and Aβ42 as described [25] or, in case of H4/sw cells by an Aβ42 AlphaLISA immunoassay kit according to the instructions of the supplier (PerkinElmer) as described [38]. […]

[14] = read-out: Aβ42 IC50 [nM ± SD], H4/sw cells, over-night incubation, Aβ42-AlphaLisa, 4–7 independent experiments

In the case of `COc1nc(-c2cc(C)c(N[C@@H](C)c3ccc(F)cc3)nn2)ccc1-n1cnc(C)c1` [BPN-15606, reference compound], the IC50 [1] is reported as 16.9 ± 8.22 nM, the “Secreted Aβ42” value ([2]; 24 h, BPN-15606 360 nM) is reported as “reduced Aβ42 levels” and the “Secreted Aβ38” value ([2]; 24 h, BPN-15606 360 nM) is reported as “increase of Aβ38”. The IC50 ([3]; IC50 (Aβ42), 16–18 h, MSD sandwich immunoassay, this study) was ~12 nM and 12 nM, the “Aβ40 (gel)” value [4] was “strong reduction of Aβ40” and the “Short species Aβ37 and Aβ38 (gel)” value [4] was “increase of both short species, Aβ37 and Aβ38”. For the same compound, the “Aβ43 (gel)” value ([5]; BPN-15606 500 nM) was “strong reduction of Aβ43” and the “Aβ40 (gel)” value [6] was “strong reduction of Aβ40”.
In the case of `C[C@H](NC(=O)Cc1cc(F)cc(F)c1)C(=O)N[C@@H]1C(=O)N(C)c2ccccc2-c2ccccc21` [DBZ, dibenzazepine, reference compound], the IC50 [1, 14] is reported as 0.33 ± 0.01 nM and the “Notch1 cleavage / NICD release” value (Notch1 cleavage) is reported as “reduced the levels of the Notch1 intracellular domain”.
With `CC(C)CCC(c1ccc(Cl)cc1)N1CCC(CC(=O)O)CC1c1ccc(C(F)(F)F)cc1` (stereo not drawn) [GSM-1, reference compound] the “Competition of RO6874585 crosslinking to presenilin” value (shortened to “Competition”) (PS1 and PS2 NTF and CTF) was “did not or only weakly compete binding” and the “Aβ38 level in treated cells, % of total Aβ” value (from here on “Aβ38 level … % of total Aβ”) [7] was 30–60%.
In the case of `CC(C)N1CCCC(c2ccc3[nH]c(C(=O)Nc4cccc(F)c4)cc3c2)C1` (stereo not drawn) [RO5218165], the “Competition” value (PS1 and PS2 NTF and CTF) is reported as “differential competition for NTF and CTF binding” and the IC50 [1, 14] is reported as 207 ± 32.4 nM.
With `CC(C)N1CCC(Oc2ccc3[nH]c(C(=O)Nc4ccc(F)c(F)c4)cc3c2)C1` (stereo not drawn) [RO5218863] the “Competition” value (PS1 and PS2 NTF and CTF) was “competed with presenilin binding” and the IC50 [1, 14] was 229 ± 69.8 nM.
For `CC(=O)N1CCCC(c2ccc3[nH]c(C(=O)Nc4cc(F)cc(F)c4)cc3c2)C1` (stereo not drawn) [RO5254601], the “Competition” value (PS1 and PS2 NTF and CTF) was “competed with presenilin binding of RO6874585”, the IC50 [1] was 63.3 ± 24.1 nM and the Aβ37 production ([3]; dose–response) was “increased Aβ37”. For the same compound, the Aβ38 production ([3]; dose–response) was “increased the production of Aβ38”, the Aβ40 production ([3]; dose–response) was “largely unaffected” and the “Aβ40 (gel)” value [4] was “little effect on Aβ40”. The “Effect on Aβ species profile” value [8] was “primarily acted on Aβ42 and Aβ38”, the “Total Aβ levels” value [9] was “without affecting total Aβ levels” and the “Combined pathogenic species (Aβ42 + Aβ43)” value [7] was “lower the ratio of combined pathogenic species”. The “Secreted Aβ43” value [7] was “could not lower Aβ43”, the “Notch1 cleavage / NICD release” value (Notch1 cleavage) was “did not impair Notch1 cleavage” and the “Long species (Aβ42 + Aβ43), overall fraction / sum” value ([10]; RO5254601 2.5 µM) was “not reduced; also recorded: barely reduced the sum of long Aβ42 and Aβ43 species”. The “Secreted Aβ42” value [11] was “reduced only Aβ42”, the “Secreted Aβ43” value [11] was “had no effect on Aβ43” and the “Aβ42 (gel)” value ([5]; RO5254601 2.5 µM) was “markedly lowering Aβ42”. For the same compound, the “Aβ40 (gel)” value [6] was “little effect on Aβ40”.
With `O=C(CCCC[C@@H]1SC[C@@H]2NC(=O)N[C@@H]21)NCCOCCOCCOCCNC(=O)COc1ccc(C(=O)c2ccc(OCC(=O)N3CC[C@@H](Oc4ccc5[nH]c(C(=O)Nc6ccc(F)c(F)c6)cc5c4)C3)cc2)cc1` [RO6874585] the “Proteins labeled by photoaffinity probe” value (PS1 and PS2 NTF and CTF; UV crosslinking, streptavidin pull-down, immunoblot) was “PS1 and PS2 NTF and CTF as specific targets”, the “Photoaffinity labeling of PS1 L166P versus WT” value (PS1 L166P) was “without apparent differences to the WT” and the “Aβ42 lowering” value ([1]; H4/sw cells) was “lowering Aβ42”. The IC50 [1, 14] was 128 ± 44.7 nM and the “Notch1 cleavage / NICD release” value (Notch1 cleavage) was “without inhibiting Notch1 processing”.
For `Cc1nsc(N2CC3CCC(C2)C3Nc2nc3c(-c4ccc(F)c(F)c4F)cccn3n2)n1` (stereo not drawn) [RO7019009], the “Competition” value (PS1 and PS2 NTF and CTF) is listed as “differential competition for NTF and CTF binding”, the IC50 (brain-derived cell lines) is listed as at least 2 nM and the IC50 [1] is listed as 3.76 ± 0.6 nM. The “Secreted Aβ38” value ([2]; 24 h, BPN-15606 360 nM) was “strongly increased Aβ38”, the “Aβ40 (gel)” value [4] was “strong reduction of Aβ40” and the “Short species Aβ37 and Aβ38 (gel)” value [4] was “increase of both short species, Aβ37 and Aβ38”. For the same compound, the “Effect on Aβ species profile” value [8] was “reduced Aβ40 and Aβ42 while increasing both shorter species Aβ37 and Aβ38”, the “Total Aβ levels” value [9] was “without affecting total Aβ levels” and the “Combined pathogenic species (Aβ42 + Aβ43)” value [7] was “effective lowering of the generation of total pathogenic Aβ42/43 species”. For the same compound, the “Secreted Aβ43” value [7] was “only potently effective compound in lowering Aβ43”, the “Effect on Aβ species profile” value ([10]; RO7019009 500 nM or 2.5 µM) was “efficiently reduced not only Aβ40 but also Aβ43 and, especially at higher concentrations, Aβ42” and the “Secreted Aβ42” value [11] was “reduced both Aβ42 and Aβ43”. The “Secreted Aβ43” value [11] was “reduced both Aβ42 and Aβ43”, the “Aβ38 (gel)” value ([5]; RO7019009 500 nM) was “increased generation of Aβ38” and the “Processivity: ratio of shorter Aβ37/38 combined with Aβ40 to longer Aβ42/43 species” value ([5]; RO7019009 500 nM) was “increased processivity”. For the same compound, the “Aβ40 (gel)” value [6] was “strong reduction of Aβ40”, the “Processivity: ratio of shorter Aβ37/38 combined with Aβ40 to longer Aβ42/43 species” value ([6]; heterozygous KI MEF, RO7019009 500 nM) was “increased processivity” and the “Short species Aβ37 and Aβ38 (gel)” value ([6]; heterozygous KI MEF) was “increase of both short species, Aβ37 and Aβ38”. For the same compound, the IC50 [12] was ~14 nM and 14 nM.
With `COc1cc(Nc2nc(Cc3ccc(Cl)cc3)cc(C(C)(C)O)n2)ccc1-n1cnc(C)c1` [RO-02, reference compound] the “Competition” value (PS1 and PS2 NTF and CTF) was “did not or only weakly compete binding”, the IC50 [1] was 20.5 ± 4.38 nM and the “Aβ38 level … % of total Aβ” value ([2]; GSM-1 2.5 µM, RO-02 500 nM, one range given for both compounds and both 'other genotypes') was 30–60%. For the same compound, the “Aβ40 (gel)” value [4] was “strong reduction of Aβ40”, the “Short species Aβ37 and Aβ38 (gel)” value [4] was “increase of both short species, Aβ37 and Aβ38” and the “Aβ38 level … % of total Aβ” value [13] was 6–8%. The “Aβ38 level … % of total Aβ” value [7] was 30–60%, the “Aβ40 (gel)” value [6] was “strong reduction of Aβ40” and the “Short species Aβ37 and Aβ38 (gel)” value ([6]; heterozygous KI MEF) was “increase of both short species, Aβ37 and Aβ38”. For the same compound, the IC50 [12] was ~15 nM and 15 nM.
